Assay results from patent publication US6821516B1, “Macrophages, process for preparing the same and their use as active substances of pharmaceutical compositions” (I.D.M. Immuno-Designed Molecules, priority 1993, dated 2004).

System: U937 tumor cells
Assay: In vitro antitumoral assay: inhibition of 3H-thymidine incorporation by U937 tumor cells, macrophage/U937 ratio 1/1
Format: cell-based, human
Settings: mean and standard error of 8 preparations
Description: The “cytotoxic activity” corresponds to the one measured as the percentage of inhibition of 3-H thymidine incorporation by target tumoral cells, particularly U937 cells, and a test for this measure is hereafter given:
Differentiated macrophages were seeded into 96-well flat microtiter plates at 10^4 macrophages/well in 0.2 ml. After 2 h incubation at 37° C. in 5% CO2 humidified atmosphere, the medium was removed and replaced by IMDM+5% hu AB serum containing or not 250 U/ml of rhu IFNγ; plates were further incubated overnight. After washing, 10^4 U937 tumor cells in 0.2 ml fresh medium (IMDM+10% FCS) were added to each well. After 24 h contact, 0.1 μCi of tritiated thymidine was added to each well for a further 24 h incubation.
The cells were collected and the determination of incorporated radioactivity on the fiber glass filters was carried out by β counting. The percentage inhibition of thymidine incorporation by tumor cells could be calculated according to the formula: [formula]
The cytotoxic activity is determined with U937 cells, the ratio between macrophages and U937 being of 1/1. […]
The cells were collected and the determination of incorporated radioactivity on the fiber glass filters was carried out by β counting. The % inhibition of thymidine incorporation by tumor cells was calculated according the formula: [formula]

+GM-CSF
cytotoxic activity +IFN-γ: % inhibition of 3H-thymidine incorporation by U937 cells (after activation with 250 U/ml IFN-γ): 76 +/− 5%
cytotoxic activity −IFN-γ: % inhibition of 3H-thymidine incorporation by U937 cells (without IFN-γ activation (spontaneous)): 44 +/− 5%
